How the values were obtained:
Assay type in all cases: cell-based
SULT1A1 human [1] = molecular target: T1, SULT1A1 human (Homo sapiens, UniProt P50225, V223M); assay: pHCA and zosteric acid in culture media of E. coli expressing an aryl sulfotransferase in combination with cysDNC and cysQ; settings: Enzymes: SULT1A1 Homo sapiens, grown as in Example 1 (0.1 mM pHCA)
T1 construct: expressed in transfected cells; host or cells: E. coli BL21(DE3)pLysS
Procedure: (§1) The strains were grown in M9 minimal media containing glucose as a carbon source, and 0.1 mM IPTG for induction of gene expression as well as 0.1 mM p-coumaric acid (pHCA). After four days of growth, samples were withdrawn by filtration and analyzed by HPLC.
(§2) The concentration of p-courmaric acid (pHCA) and zosteric acid in the supernatant was quantified by high performance liquid chromatography (HPLC) and compared to chemical standards. HPLC was done on a Thermo setup using a HS-F5 column and mobile phases: 5 mM ammonium formate pH 4.0 (A) and acetonitrile (B) at 1.5 mL min-1, using a gradient elution starting at 5% B. From 0.5 min after injection to 7 min, the fraction of B increased linearly from 5% to 60%, and between 9.5 min and 9.6 the fraction of B decreased back to 5%, and remaining there until 12 min. pHCA and zosteric acid were quantified by measuring absorbance at 277 nm.
The addition of sulfated groups to targets is dependent on supply of the donor molecule 3′-Phosphoadenosine 5′-phosphosulfate (PAPS). We examined if we could increase the production of zosteric acid by overexpressing enzymes providing PAPS and an enzyme that removes the product 3′-Phosphoadenosine 5′-phosphate (PAP).
In E. coli, the genes cysD and cysN encode the two subunits of ATP sulfurylase (EC:2.7.7.4), cysC encodes APS kinase (EC:2.7.1.25), and cysQ encode a PAP phosphatase.
The plasmid pRSFDuet-1 (Life Technologies) was digested by the restriction endonucleases NdeI and BgIII. The gene cluster was inserted into the digested plasmid using the Gibson reaction (New England Biolabs). […] For the combined expression of cysDNC and cysQ in an artificial operon, cysDNCQ, the two parts were amplified by PCR from E. coli MG1655 chromosomal DNA using the primers shown in Table 3. Again the parts were inserted into the digested plasmid. […] The plasmid expressing SULT1A1 Homo sapiens (SEQ ID NO: 2) from example 1 was co-transformed into E. coli BL21(DE3)pLysS cells (Life Technologies) with either the plasmid expressing cysDNC or cysDNCQ.
Cells were grown as in Example 1 and the supernatants were analyzed for product formation as in example 1. The strain expressing SULT1A1 in combination with cysDNCQ was also grown without the addition of IPTIG for induction.

SULT1A1 human [2] = molecular target: T1, SULT1A1 human; assay: Production of zosteric acid from pHCA in E. coli expressing a sulfotransferase; settings: E. coli BL21(DE3)pLysS expressing SULT1A1 Homo sapiens; M9 glucose, 0.1 mM IPTG, 0.1 mM pHCA; four days
Source text: (§3) A range of aryl sulfotransferases including SULT1A1 Rattus norvegicus (SEQ ID NO: 1), SULT1A1 Homo sapiens (SEQ ID NO: 2), SULT1A1 Equus caballus (SEQ ID NO: 3), SULT1A1 Sus scrofa domesticus (SEQ ID NO: 4), SULT1A1 Canis lupus familiaris (SEQ ID NO: 5) and SULT1E1 Gallus gallus domesticus (SEQ ID NO: 6) were expressed in Escherichia coli. […]. The nucleotide sequence of the gene encoding SEQ ID NO: 2 was codon optimized for expression in Escherichia coli (GeneArt, Life Technologies) and amplified by PCR using the primers in Table 1. The pETDuet-1 plasmid was digested with restriction endonucleases NcoI and SalI. The PCR products were then individually cloned into the plasmid pETDuet-1 using the Gibson reaction (New England Biolabs). The resulting plasmids were transformed into BL21(DE3)pLysS (Life Technologies).
as §1, §2

[3] = molecular target: T2, SULT1A1 Rattus norvegicus (Rattus norvegicus, UniProt P17988); assay: as above; settings: E. coli BL21(DE3)pLysS expressing SULT1A1 Rattus norvegicus; M9 glucose, 0.1 mM IPTG, 0.1 mM pHCA; four days; culture media, HPLC
T2 construct: 1, 3, 4, 5, and 6 were cloned amplified from liver tissue cDNA; expressed in transfected cells
Source text: as §3, §1, §2

[4] = molecular target: T3, SULT1A1 Canis lupus familiaris (Canis lupus familiaris, UniProt Q29476); assay: as above; settings: E. coli BL21(DE3)pLysS expressing SULT1A1 Canis lupus familiaris; M9 glucose, 0.1 mM IPTG, 0.1 mM pHCA; four days
T3 construct: 1, 3, 4, 5, and 6 were cloned amplified from liver tissue cDNA; expressed in transfected cells; host or cells: E. coli BL21(DE3)pLysS
Source text: as §3, §1, §2

SULT1A1 human [5] = molecular target: T1, SULT1A1 human; assay: pHCA and zosteric acid in culture media of E. coli expressing an aryl sulfotransferase in combination with a tyrosine ammonia lyase; settings: E. coli BL21(DE3)pLysS expressing SULT1A1 Homo sapiens and RmXAL, M9 glucose, 0.1 mM IPTG, no substrate added
Procedure: as §2
The enzyme RmXAL from Rhodotorula mucilaginosa/Rhodotorula rubra (SEQ ID NO: 46) has tyrosine ammonia lyase activity, thus catalyzing the non-oxidative deamination of the amino acid tyrosine, releasing p-coumaric acid (pHCA) and ammonia. The gene encoding RmXAL was codon optimized using standard algorithms for expression in E. coli available by GeneArt (Life Technologies) and amplified by PCR using the primers shown in Table 5 and inserted into the pCDFDuet-1 vector (Novagen/Life Technologies), which had been digested by the restriction enzymes NdeI and BgIII, using Gibson reaction (New England Biolabs). […]

T1 sequence (P50225 whole entry V223M): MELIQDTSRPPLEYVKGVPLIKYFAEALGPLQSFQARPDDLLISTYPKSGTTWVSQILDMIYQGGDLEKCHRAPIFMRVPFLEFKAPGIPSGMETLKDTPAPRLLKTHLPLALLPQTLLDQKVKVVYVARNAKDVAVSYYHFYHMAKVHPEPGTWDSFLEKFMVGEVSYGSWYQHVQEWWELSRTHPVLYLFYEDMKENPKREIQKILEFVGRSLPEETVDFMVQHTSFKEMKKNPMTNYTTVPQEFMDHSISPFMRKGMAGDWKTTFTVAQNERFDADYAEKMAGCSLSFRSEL
T2 sequence (P17988 whole entry): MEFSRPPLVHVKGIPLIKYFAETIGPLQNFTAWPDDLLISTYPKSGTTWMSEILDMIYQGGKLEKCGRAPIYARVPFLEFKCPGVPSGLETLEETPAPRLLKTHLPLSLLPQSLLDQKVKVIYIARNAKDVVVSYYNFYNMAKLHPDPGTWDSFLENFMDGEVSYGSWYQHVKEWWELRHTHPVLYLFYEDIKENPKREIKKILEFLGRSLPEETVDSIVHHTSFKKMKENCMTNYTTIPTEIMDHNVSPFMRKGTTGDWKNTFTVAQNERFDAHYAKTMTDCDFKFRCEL
T3 sequence (Q29476 whole entry): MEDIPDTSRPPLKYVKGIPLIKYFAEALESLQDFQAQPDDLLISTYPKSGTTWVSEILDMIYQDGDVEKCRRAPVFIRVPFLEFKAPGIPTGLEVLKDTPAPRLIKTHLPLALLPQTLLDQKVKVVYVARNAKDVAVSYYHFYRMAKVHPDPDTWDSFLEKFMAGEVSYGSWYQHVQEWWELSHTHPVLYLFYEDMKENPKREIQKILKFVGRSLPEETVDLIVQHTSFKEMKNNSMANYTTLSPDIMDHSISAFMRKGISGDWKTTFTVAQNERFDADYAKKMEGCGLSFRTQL

SMILES	Zosteric acid formed (SULT1A1 human [1]; CysDNC, induction 0.1 mM IPTG) [mM]	Zosteric acid formed (SULT1A1 human [1]; CysDNCQ, induction 0.1 mM IPTG) [mM]	Zosteric acid formed (SULT1A1 human [1]; induction 0.1 mM IPTG) [mM]	Zosteric acid formed (SULT1A1 human [2]) [mM]	Zosteric acid formed [3] [mM]	Zosteric acid formed [4] [mM]	Zosteric acid formed (SULT1A1 human [5]) [mM]	pHCA remaining (SULT1A1 human [1]; CysDNC, induction 0.1 mM IPTG) [mM]	pHCA remaining (SULT1A1 human [1]; CysDNCQ, induction 0.1 mM IPTG) [mM]	pHCA remaining (SULT1A1 human [1]; CysDNCQ, induction None) [mM]	pHCA remaining (SULT1A1 human [1]; induction 0.1 mM IPTG) [mM]	pHCA remaining (SULT1A1 human [2]) [mM]	pHCA remaining [3] [mM]	pHCA remaining [4] [mM]	pHCA (SULT1A1 human [5]) [mM]
O=C(O)/C=C/c1ccc(OS(=O)(=O)O)cc1 [Zosteric acid, zosteric acid]	0.06	0.09	0.02	0.02	0.10	0.01	0.01								
O=C(O)/C=C/c1ccc(O)cc1 [pHCA, p-coumaric acid]								0.06	0.04	0.10	0.08	0.08	0.02	0.10	0.02

— patent US11555212B2, “Process for the production of sulfated phenolic compounds using modified Escerichia coli” (CysBio ApS, priority 2016, dated 2023)
